Results published in article PMC11837497, “A novel FadL family outer membrane transporter is involved in the uptake of polycyclic aromatic hydrocarbons” (Applied and Environmental Microbiology, 2025).

Target: T1, PadL (NpPadL) (Novosphingobium pentaromativorans, UniProt G6EAN6)
T1 construct: gene NSU_1434; padL expressed from pET-28b (T7, IPTG) in E. coli BL21 cells; also pHGE-Ptac complementation of delta-padL US6-1; signal peptide (residues 1-45) removed only in the model
T1 sequence (G6EAN6 46-450): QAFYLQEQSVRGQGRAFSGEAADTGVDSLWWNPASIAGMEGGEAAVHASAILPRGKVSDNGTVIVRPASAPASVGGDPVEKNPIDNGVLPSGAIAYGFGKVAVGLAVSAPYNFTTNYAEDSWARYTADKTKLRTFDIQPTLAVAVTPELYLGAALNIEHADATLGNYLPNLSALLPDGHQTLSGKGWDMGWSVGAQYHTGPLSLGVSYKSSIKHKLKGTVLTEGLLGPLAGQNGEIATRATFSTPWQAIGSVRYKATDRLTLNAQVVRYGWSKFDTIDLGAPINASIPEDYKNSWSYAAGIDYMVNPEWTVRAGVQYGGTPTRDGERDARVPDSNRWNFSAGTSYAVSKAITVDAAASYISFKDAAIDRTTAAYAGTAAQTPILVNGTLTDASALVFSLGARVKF
Assay: uptake by intact cells, confocal fluorescence of intracellular phenanthrene
Type: cell-based
Conditions: E. coli BL21/pET28b-padL, LB medium, 200 mg/L phenanthrene, IPTG induction, 37 °C

c1ccc2c(c1)ccc1ccccc12 [phenanthrene]
uptake by intact cells, confocal fluorescence of intracellular phenanthrene: E. coli BL21 can be endowed with an ability to assimilate phenanthrene after heterologous expression of PadL
